Experimental data taken from patent publication US20060223779A1, “Method of screening for inhibitors of human Fatty Acid-CoA Ligase 4” (priority 2000, published 2006).

Key:
COX-2 stable 293 cells = assay: Apoptosis in stably transfected 293 cells with inducible COX-2 over-expression; assay type: cell-based, human; conditions: for effect on the prevention of apoptosis by COX-2: AA 300 μM, COX-2 over-expressing cells; for reduction of fatty acid-induced apoptosis by inducing COX-2 over-expression: COX-2 over-expression induced, n=3
Description: (A) Conditional expression level of FACL4 and COX-2 in stably transfected lines. Cells were treated with (+) or without (−) ponasterone (1 μg/ml) for 48 hr, and Western blotting was carried out with anti-FACL4 and anti-COX-2 antibodies, respectively. The loading was normalized with an anti-β actin antibody (ICN Biomedicals). […] The 293 cells stably transfected with an empty control vector (Ctl), FACL4 cDNA, COX-2 cDNA, and both FACL4 and COX-2 cDNAs were uninduced (−Pon) or induced for over-expression (+Pon) as in A. AA (300 μM) was added after 24 hr of induction and apoptosis was determined 44 hr later. […] The plot is a comparison of the relative apoptosis levels among the stable lines and is representative of three independent experiments. The values shown are the averages of triplicate determinations. […] Cells were uninduced (−Pon) or induced for over-expression as above. […] COX inhibitors were administered 6 hr later as indicated. AA (300 μM) was then added after 2 hr and apoptosis was determined 44 hr later. The plot is prepared as in B, and is a representative result from three independent experiments, in which triplicates were performed. Wt=wild-type, Mut=mutant, Met=50 μM 6-methoxy-2-naphthyl acetic acid, Indo=10 μM indomethacin. […] The COX-2, FACL4/COX-2 stable and control cells carrying an empty vector were induced for 48 hr, washed and incubated with 20 μM AA at 37° C. for 30 min. The amount of PGE2 synthesized was determined by ELISA. […] (E) The levels of free AA in the stable lines. The [^3H]
(§1) Cell Death Detection ELISA. Cells were plated on 96 well-plates at 1×10^4 cells per well. AA was applied and apoptotic death was determined after 44 hr with the Cell Death Detection ELISA (Boehringer Mannheim).
Stable cell lines. The ecdysone inducible system (Invitrogen) was used to construct stable lines over-expressing human FACL4, COX-2, COX-2 mutant, and both FACL4 and COX-2. […] The cDNAs were cloned into pIND(SP1) (Neomycin^r). The cDNA constructs, or the empty vector pIND(SP1) were transfected into EcR293 cells, which were then selected in 400 μg/ml geneticin and 400 μg/ml zeocin. […] The double stable line was generated by stably transfecting the COX-2 stable cells with another pIND(SP1)-FACL4 cDNA construct, in which the FACL4 cDNA was cloned into a pIND(SP1) (hygromycin^r) vector. The cells were selected in 400 μg/ml geneticin, 400 μg/ml zeocin, and 50 μg/ml hygromycin B. The positive colonies were screened as described above.

[1] = system: FACL4/COX-2 double stable cells; assay: Cell survival of FACL4/COX-2 double stable cells after TNFα or A23187; assay type: cell-based, human
Description: FIG. 5: Enzymatic “sinks” for free arachidonic acid protect against TNFα_ and calcium ionophore_mediated cell killing. (A) Determination of cell survival. The cells were induced (+Pon) or not (−Pon) for 24 hr, and TNFα (1 ng/ml) or the calcium ionophore A23187 (5 μM) was added, and the cells were incubated for another 72 hr. The surviving fraction was determined and is plotted relative to that of the same line without TNFα or A23187 treatment. Ctl denotes control cells harboring an empty vector, while FACL4/COX-2 denotes the double stable line. (B) Measurement of the free AA. The FACL4/COX-2 cells were prelabeled with [^3H] AA, induced, and stimulated with A23187 (5 μM), and [^3H] AA release was measured at the indicated time intervals. The values are from one experiment that is representative of four independent determinations.
Stable cell lines. The ecdysone inducible system (Invitrogen) was used to construct stable lines over-expressing human FACL4, COX-2, COX-2 mutant, and both FACL4 and COX-2. […] The cDNAs were cloned into pIND(SP1) (Neomycin^r). The cDNA constructs, or the empty vector pIND(SP1) were transfected into EcR293 cells, which were then selected in 400 μg/ml geneticin and 400 μg/ml zeocin. A number of single colonies were screened for over-expression of FACL4, COX-2 wild type, and COX-2 mutant by immunoblotting against anti-FACL4 (See Y. Cao et al., 467 FEBS Lett. 263-267 (2000)), and anti-COX-2 antibodies (a gift from Dr. Jacques Maclouf), and by measurement of the CoA ligase activity for FACL4 (See D. B. Wilson et al., 257 J. Biol. Chem. 3510-3515 (1992)), or the PGE2 secretion for COX-2 wild type (ELISA assay, Assay Design, Inc.). The double stable line was generated by stably transfecting the COX-2 stable cells with another pIND(SP1)-FACL4 cDNA construct, in which the FACL4 cDNA was cloned into a pIND(SP1) (hygromycin^r) vector. The cells were selected in 400 μg/ml geneticin, 400 μg/ml zeocin, and 50 μg/ml hygromycin B. The positive colonies were screened as described above.
(§2) Cell survival. Cell viability was determined with the crystal violet staining (See M. Hayakawa et al., 268 J. Biol. Chem. 11290-11295 (1993).

293 cells [2] = assay: Cell survival (crystal violet staining) in 293 cells; assay type: cell-based, human; conditions: not shown
Description: (§3) FIG. 3: Arachidonic acid induces apoptosis via activation of caspase 3. (A) Determination of cell survival. AA was added to 293 cells at the indicated concentrations and the surviving fraction of cells was determined after 44 hr. The values shown are relative to the viability of cells that were not exposed to AA. (B) Increased apoptosis in cells exposed to AA. Cells were treated with AA (300 μM) or palmitic acid (300 μM) under the same conditions as in A, and then apoptosis was detected with an ELISA. The mean values from triplicate determinations are shown. […] The 293 cells were treated with AA (300 μM; +AA) or vehicle alone (−AA) for 44 hr. The nuclei were stained with DAPI, and DNA strand breaks in individual cells were detected with a fluorescent TUNEL assay. The upper panels are the same field of cells (−AA) photographed under UV (left panels) and FITC filters (right panels). The lower panels illustrate apoptotic cells (+AA). The magnification is 80×. (D) Immunostaining with an anti-active caspase 3 antibody. Upper panels, control cells (−AA); lower panels, cells exposed to 300 μM AA. Left panels, DAPI staining; right panels, immunostaining with an antibody selective for active caspase 3. The magnification is 100×. […] The 293 cells were preincubated with caspase inhibitors (including DMQD, a caspase 3 inhibitor, and YVAD, a caspase 1 and 4 inhibitor (Peptide Institute)) for 1 hr at the indicated concentrations, AA (300 μM) was added, and apoptosis was determined 44 hr later. The values represent the means from triplicate determinations.
as §2

293 cells [3] = assay: Apoptosis by Cell Death Detection ELISA in 293 cells; assay type: cell-based, human; conditions: for effect of antioxidant pretreatment on AA-induced apoptosis: antioxidant 1 hr, then AA 200 μM
Description: as §3, §1

[4] = system: colon and prostate cancer cells; conditions: by down-regulating Bcl-2; literature reports; cited from earlier work
HT 29 cells = assay: Apoptosis by Cell Death ELISA in HT 29 cells; assay type: cell-based
Description: HT 29 Cells were plated in 96 wells. Triacsin C and AA were added (in A), or triacsin C with either indomethacin (Indo) or sulindac (Sul) (in B) were added at the indicated concentrations. Indomethacin and sulindac are both cyclooxygenase (COX) inhibitors. Apoptosis was determined by Cell Death ELISA 44 hr later (A), and 72 hr later (B), respectively. […] The values shown are the means of triplicate determinations.
as §1

## COc1ccc2cc(CC(=O)O)ccc2c1 [6-methoxy-2-naphthylacetic acid]
COX-2 stable 293 cells; 50 μM
  effect on the prevention of apoptosis by COX-2: abolished the prevention of apoptosis by COX-2
[1]; double stable cells, not shown
  effect on the improvement in cell survival in the double stable cells: partially abolished the improvement in cell survival

## CCCCC[C@H](O)/C=C/C=C\C/C=C\C/C=C\CCCC(=O)O [15-HETE]
293 cells [2]; 293 cells
  effect on cell survival: did not affect cell survival

## CC/C=C\C/C=C\C/C=C\C/C=C\C/C=C\C/C=C\CCC(=O)O [DHA, docosahexaenoic acid]
COX-2 stable 293 cells; 100 μM
  fold-increase in apoptosis after fatty acid treatment: 15.1 fold
COX-2 stable 293 cells
  reduction of fatty acid-induced apoptosis by inducing COX-2 over-expression: 18.5%

## CC/C=C\C/C=C\C/C=C\C/C=C\C/C=C\CCCC(=O)O [EPA, eicosapentaenoic acid]
COX-2 stable 293 cells; 200 μM
  fold-increase in apoptosis after fatty acid treatment: 9.1 fold
COX-2 stable 293 cells
  reduction of fatty acid-induced apoptosis by inducing COX-2 over-expression: 34.0%

## CC(Cc1ccc(O)c(O)c1)C(C)Cc1ccc(O)c(O)c1 (stereo not shown) [NDGA]
293 cells [3]; 293 cells
  induction of apoptosis: induced apoptosis

## CS(=O)(=O)Nc1ccc([N+](=O)[O-])cc1OC1CCCCC1 [NS398]
[4]
  reported effect on apoptosis: enhance the induction of apoptosis

## CCCCC[C@H](O)/C=C/[C@H]1[C@H](O)CC(=O)[C@@H]1C/C=C\CCCC(=O)O [PGE2]
293 cells [2]; 50 μM added directly
  cell viability in the presence of exogenous AA: did not improve cell viability

## CCCCC[C@H](O)/C=C/[C@H]1C(=O)C=C[C@@H]1C/C=C\CCCC(=O)O [PGJ2]
293 cells [2]; 5 μM added directly
  cell viability in the presence of exogenous AA: did not improve cell viability

## CS(=O)(=O)c1ccc(-n2nc(C(F)(F)F)cc2-c2ccc(F)cc2)cc1 [SC-58125]
[4]
  reported effect on apoptosis: enhance the induction of apoptosis

## O=C1O[C@H]([C@@H](O)CO)C(O)=C1O [ascorbic acid]
293 cells [3]; 293 cells, 44 hr
  effect of antioxidant pretreatment on AA-induced apoptosis: apoptosis decreased significantly

## COc1ccc2c(c1)c(CC(=O)O)c(C)n2C(=O)c1ccc(Cl)cc1 [indomethacin]
COX-2 stable 293 cells; 10 μM
  effect on the prevention of apoptosis by COX-2: did not alter the apoptosis response

## CCCCCCCC/C=C\CCCCCCCC(=O)O [oleic acid]
293 cells [3]
  induction of apoptosis by other fatty acids compared with AA: did not cause the same response

## CCCCCCCCCCCCCCCC(=O)O [palmitic acid]
293 cells [3]
  induction of apoptosis by other fatty acids compared with AA: did not cause the same response
293 cells [3]; 293 cells, 300 μM, 44 hr
  apoptosis (mono- and oligo-nucleosomes) over the control: no increase
COX-2 stable 293 cells; 200 μM
  fold-increase in apoptosis after fatty acid treatment: 4.2 fold
COX-2 stable 293 cells
  reduction of fatty acid-induced apoptosis by inducing COX-2 over-expression: 8.1%

## CCC/C=C/C/C=C/C=C/C=N/NN=O [triacsin C]
HT 29 cells; 2 μM
  cell death with triacsin C alone: did not cause cell death
HT 29 cells; 10 μM
  increase in apoptosis compared to control cells: 9 fold
HT 29 cells; Cell Death ELISA
  induction of apoptosis: induced apoptosis in a concentration-dependent manner
HT 29 cells; plus sulindac, 72 hr
  increase of the apoptosis-inducing effect of triacsin C in the presence of sulindac: 4-8 fold
HT 29 cells; triacsin C 2 μM plus indomethacin, 72 hr
  apoptosis with triacsin C when indomethacin was added: induced apoptosis
HT 29 cells; triacsin C plus AA, 44 hr
  sensitization to AA-induced apoptosis: sensitized cells to AA-induced apoptosis

## Cc1c(C)c2c(c(C)c1O)CCC(C)(C(=O)O)O2 (stereo not shown) [trolox]
293 cells [3]; 293 cells, 44 hr
  effect of antioxidant pretreatment on AA-induced apoptosis: apoptosis decreased significantly

## TNFα
[1]; FACL4/COX-2 double stable cells induced with ponasterone, TNFα 1 ng/ml or A23187 5 μM, 72 hr, n=3
  surviving fraction, induced cells: 70.5%
[1]; FACL4/COX-2 double stable cells without induction, TNFα 1 ng/ml or A23187 5 μM, 72 hr, n=3
  surviving fraction, uninduced cells: 43.5%

## apo-transferrin: a membrane-impermeable antioxidant
293 cells [3]; 293 cells, 44 hr
  effect of antioxidant pretreatment on AA-induced apoptosis: did not alter AA-induced apoptosis

## tocopherol
293 cells [3]; 293 cells, 44 hr
  effect of antioxidant pretreatment on AA-induced apoptosis: apoptosis decreased significantly

## z-YVAD-fmk
293 cells [3]; 293 cells preincubated 1 hr with inhibitor, AA 300 μM, 44 hr
  blocking of AA-induced apoptosis by caspase inhibitor: not
